The subject of series [1] is HUVECs. Kind of series: Wound-healing migration assay. In kind it is cell-based, human. To be noted: VEGF 50 ng/ml, 24 hours, FIG. 4. As to the method: When cells were grown to approximately 90%, the medium was suctioned, and then a line was created by steadily scratching the bottom of the plate with a yellow tip, and then the cells were washed with PBS and treated with neo-N-methylsansalvamide (NMSSV) at various concentrations in the presence of VEGF (50 ng/ml) for 24 hours. After 24 hours, the tendency of cells to migrate at each treatment concentration was photographed and observed by marking the position under a microscope at 40× magnification.
(§1) Subsequently, the migration and invasion of endothelial cells is also a main step of angiogenesis leading to the formation of new blood vessels, so that effects of P2 on mobility and invasiveness of VEGF-induced HUVECs were checked by using a wound-healing migration assay and a Transwell invasion assay.

Series [2] has as its system HUVECs. In words: Colony tube formation assay. In kind it is cell-based, human. The conditions noted are these: Matrigel, VEGF 50 ng/ml, 24 hours, FIG. 3. The protocol:
After being cultured to 80-90% confluence in a plate covered with Matrigel (Collaborative Biomedical Products, Bedford, Mass.), HUVECs were additionally cultured in an M199 medium supplemented with 1% FBS for 6 hours, and then treated with neo-N-methylsansalvamide (NMSSV) at various concentrations in the presence of VEGF (50 ng/ml) for 24 hours. The tube formation was photographed by using a phase-contrast microscope.
The formation of capillary-like tubular structures by endothelial cells is one of the most essential steps in the development of angiogenesis, and it was checked whether P2 inhibited the formation of capillary-like network structures in HUVECs in Matrigel.

Series [3] relates to C57BL/6 mice. In words: Laser-induced choroidal neovascularization (CNV) mouse model, angiography. In kind it is in vivo. To be noted: intravitreal injection once, 14 days after laser, vs control, FIG. 8. The protocol:
(§2) More specifically, male 6-week-old C57BL/6 mice were purchased from Orient Bio Inc., and acclimated for 1 week, and then anesthetized, and the pupils were dilated. Subsequently, an animal model was prepared by irradiating the space around the ophthalmic nerves in 12, 3, 6, and 9 o'clock directions with diode green laser (532 nm, 200 mW, 0.8 sec, 50 μm, and photocoagulator) to cause injury to 3 to 4 sites per eyeball.
(§3) After injury was caused to mice with laser by the method in Example 1-9-1 and the mice were anesthetized one day later, 2 μL was administered into the vitreous body of both eyes once (intravitreal injection) using a 34 gauge needle. Subsequently, 14 days after the irradiation with laser, angiography and staining and imaging of CNV were performed.
14 days after the irradiation with laser, the mice experienced mydriasis and were systemically anesthetized by injecting 80 mg/kg of alfaxalone into the abdominal cavities of the mice, and then 1% fluorescein was intraperitoneally injected into the mice. And then, after the mice were photographed by using a Micron IV device, the CNV lesion area was measured by using Image-Pro Plus software.
Accordingly, in the animal models prepared by the methods in Examples 1-9, the degree to which the contrast medium was leaked according to the administration of NMSSV was compared with that of the control.

The test system of series [4] is HUVECs. Kind of series: Transwell invasion assay. The series is classed as cell-based, human. The conditions noted are these: VEGF 50 ng/ml, 24 hours, FIG. 5. The protocol:
An experiment was performed by using a modified Boyden chamber prepared with a polycarbonate nucleopore membrane (Corning, Corning, N.Y.). After trypsin-EDTA was added to the cells, the cells were collected, the cells were measured by using a hematocytometer, and then the concentration was set to 4×10^5 cells/ml, and the cells were respectively aliquoted. After 700 μl of the medium was added to the bottom well and an insert was placed thereon, 100 μl of cells prepared with neo-N-methylsansalvamide (NMSSV) at various concentrations were aliquoted into the insert in the presence of VEGF (50 ng/ml) and cultured in an incubator at 37° C. for 24 hours. […] After the cells, which succeeded in passing through the gelatin, were fixed with 4% paraformaldehyde, the cells were stained by using crystal violet, washed twice with PBS, and then placed on a glass plate. Thereafter, the cells were observed by using a microscope, and arbitrary five points were marked, photographed, and observed.
as §1

A further series has as its system ERK1/2. In words: Phosphorylation assay of ERK1/2 in VEGF-induced HUVECs (Western). The series is classed as cell-based, human. The conditions noted are these: VEGF 50 ng/ml, FIG. 2. The protocol:
(§4) After being cultured to 80-90% confluence, human umbilical vein endothelial cells (HUVECs) were additionally cultured in an M199 medium supplemented with 1% FBS for 6 hours, and then treated with neo-N-methylsansalvamide (NMSSV) at various concentrations in the presence of VEGF (50 ng/ml) for 10 minutes. Effects of neo-N-methylsansalvamide (NMSSV) in the phosphorylation assay of ERK1/2, AKT, and eNOS of HUVEC cells were measured by a Western assay method using each antibody.
(§5) In this case, the HUVECs were pre-cultured for 10 minutes prior to the VEGF stimulation and along with P2 for 40 minutes.

Series [5] has as its system human umbilical vein endothelial cells (HUVECs). Kind of series: MTT assay, VEGF-induced proliferation of HUVECs. The series is classed as cell-based. To be noted: 24 hours. As to the method:
After being cultured to 80-90% confluence, human umbilical vein endothelial cells (HUVECs) were additionally cultured in an M199 medium supplemented with 1% FBS for 6 hours, and then treated with neo-N-methylsansalvamide (NMSSV) at various concentrations in the presence of VEGF (50 ng/ml) for 24 hours. Effects of neo-N-methylsansalvamide (NMSSV) on the viability and growth inhibition of the HUVEC cells were measured by a 3-(4,5-dimethylthiazol-2-yl)-2,5-diphenyltetrazolium bromide (MTT) assay method.
In order to identify the effects of the neo-N-methylsansalvamide (NMSSV, Peak 2, hereinafter, referred to as P2) of the present invention on the proliferation in VEGF-induced HUVECs, it was confirmed that cells were proliferated by culturing the cells with P2 at various concentrations in the presence or absence of VEGF (50 ng/ml) by the method in Example 1-2 and performing an MTT assay 24 hours after the culture.

A further series relates to AKT. Kind of series: Phosphorylation assay of AKT in VEGF-induced HUVECs (Western). In kind it is cell-based, human. To be noted: VEGF 50 ng/ml, FIG. 2. As to the method:
as §4, §5

The subject of the next series is mouse aortic ring. In words: Aortic ring assay (ex vivo VEGF-induced vascularization). To be noted: in the presence of VEGF, FIG. 6. The protocol:
150 μl of Matrigel was put into a 48-well plate, uniformly spread by shaking the 48-well plate, and hardened in an incubator at 37° C. for 30 minutes. After a C57BL/6 mouse was over-anesthetized with ether and sacrificed, the aorta was extracted and washed with PBS to remove the fat, the resulting aorta was transferred to human endothelial-SFM and excised by using micro scissors. The excised aorta was placed on the hardened Matrigel, 50 μl of Matrigel was dropped on the aorta tissue, and then hardened in an incubator at 37° C. for 30 minutes. 200 μl of a medium including neo-N-methylsansalvamide (NMSSV) and VEGF was each added, and cells were observed while being cultured in a CO2 incubator at 37° C. After treatment with the test material, the cells were cultured for 14 days. On Day 7 and Day 14 of the culture, the cells were observed and photographed by an invert microscope (OLYMPUS, CKX41), and the lengths of the blood vessels produced were measured by photographing the aorta with the Toupview program (OLYMPUS, ver.3.5).
Based on the results in the Examples, the effects of P2 on ex vivo VEGF-induced neovascularization were identified, so that an aortic ring assay was performed in order to check the effects of P2 on the formation of capillary vessels in the presence of VEGF.

The subject of another series is eNOS. In words: Phosphorylation assay of eNOS in VEGF-induced HUVECs (Western). The series is classed as cell-based, human. The conditions noted are these: VEGF 50 ng/ml, FIG. 2. As to the method: as §4, §5
For series [6], the system named is C57BL/6 mice. Kind of series: Laser-induced CNV mouse model, isolectin B4 immunofluorescence staining. To be noted: intravitreal injection once, 2 weeks after laser, vs control, FIG. 9. In kind it is in vivo. As to the method:
as §2, §3
14 days after the irradiation with laser, eyeballs were extracted from the mice, and then fixed in 4% paraformaldehyde for 1 hour. […] Thereafter, after the complex tissue was washed with PBS, the tissue with a fluorescence mounting medium (Vector, USA) was fixed on a slide glass, and then covered with a cover slip, and the tissue was observed and photographed through a fluorescence microscope. The CNV lesion area was measured by using Image-Pro Plus software. […]

For series [7], the system named is C57BL/6 mice. Kind of series: Matrigel plug assay (in vivo VEGF-induced angiogenesis). Details: species or system mouse. To be noted: seven days, FIG. 7. The protocol:
A test material administration group and a VEGF (50 ng/ml) administration group were established, and each group consisted of six 8-week-old C57BL/6 mice. 0.5 ml of Matrigel, 50 U/ml of heparin, and a test material were formulated for use at each concentration right before the administration, and formulated such that VEGF was also included in the test material administration group. Seven days after the administration, a Matrigel plug was extracted, a photograph was taken, the amount of hemoglobin was measured by using the Drabkin method (Drabkin reagent kit 525, Sigma-Aldrich, Louis, Mo.), and purification was performed.
0.6 ml of the test material solution was administered to the dorsal hypodermis of each test animal by using a 1-ml syringe.
Thus, additionally through an in vivo Matrigel plug assay, the effects of P2 on in vivo angiogenesis were checked.

Turning to `CC(C)CC1OC(=O)[C@H](Cc2ccccc2)NC(=O)[C@H](CC(C)C)NC(=O)[C@H](C(C)C)NC(=O)[C@H](CC(C)C)N(C)C1=O` (single isomer, unassigned) [P2, neo-N-methylsansalvamide], the “VEGF-induced migration of HUVECs” value in the series on HUVECs [1] was “significantly decreased”. In the series with HUVECs [2], the “VEGF-induced colony tube formation in HUVECs” value is “significantly inhibited”. In the series with C57BL/6 mice [3], the “CNV lesion area (angiography)” value is recorded as “the CNV lesion area is decreased” and the fluorescein leakage result is “the fluorescein leakage was decreased”. The “invasion of HUVECs due to VEGF through Matrigel” value in the series on HUVECs [4] is recorded as “blocked”. Besides, the “phosphorylation of ERK1/2 induced by VEGF” value with ERK1/2 is on record as “inhibited the phosphorylation”. Also, in [5] (VEGF 50 ng/ml, MTT, FIG. 1), the “proliferation of HUVECs induced by VEGF” value is given as “dose-dependently inhibited”. Besides, the “apoptosis (cytotoxicity) in HUVECs” value in [5] (at 5 μg/ml of P2, MTT) is “significant apoptosis was not detected”. Besides, the “phosphorylation of AKT induced by VEGF” value with AKT is given as “inhibited the phosphorylation”. For the same molecule, the “formation of VEGF-induced blood vessels in a mouse aortic ring” value in the series on mouse aortic ring was “significantly inhibited”. Further, the “phosphorylation of eNOS induced by VEGF” value in the series with eNOS is “inhibited the phosphorylation”. The “CNV lesion area (isolectin B4 stained area)” value in the series with C57BL/6 mice [6] is recorded as “significantly decreased”. Besides, the “content of hemoglobin of Matrigel plug treated with VEGF” value in the series on C57BL/6 mice [7] (Drabkin method) is reported as “continuously inhibited the content of hemoglobin”. Further, the “formation of new blood vessels in Matrigel plug” value with C57BL/6 mice [7] (compared to VEGF alone, subcutaneous plug) is recorded as “the formation of new blood vessels was decreased”.

The record behind these values is patent US10709757B2, “Pharmaceutical composition for anti-angiogenesis containing cyclic pentadepsipeptide as an effective ingredient” (CHUNG-ANG UNIVERSITY INDUSTRY-ACADEMIC COOPERATION …, priority 2017, dated 2020).
